Patent US20250302815A1, “PROTEIN TYROSINE PHOSPHATASE TARGETING LIGANDS” (CALICO LIFE SCIENCES LLC, priority 2021, published 2025)

Assays:
[1] = target: T1, PTPN2 (HiBIT-PTPN2 in 293T.109 cells) (Homo sapiens, UniProt P17706); assay: HiBiT Degradation 293T.109 PTPN2 (Nano-Glo HiBiT Lytic Assay); format: cell-based; conditions: 24.0 hours
T1 construct: expressed in transfected cells; host or cells: 293T.109 (293T WT from ATCC)
T1 sequence (P17706 1-415): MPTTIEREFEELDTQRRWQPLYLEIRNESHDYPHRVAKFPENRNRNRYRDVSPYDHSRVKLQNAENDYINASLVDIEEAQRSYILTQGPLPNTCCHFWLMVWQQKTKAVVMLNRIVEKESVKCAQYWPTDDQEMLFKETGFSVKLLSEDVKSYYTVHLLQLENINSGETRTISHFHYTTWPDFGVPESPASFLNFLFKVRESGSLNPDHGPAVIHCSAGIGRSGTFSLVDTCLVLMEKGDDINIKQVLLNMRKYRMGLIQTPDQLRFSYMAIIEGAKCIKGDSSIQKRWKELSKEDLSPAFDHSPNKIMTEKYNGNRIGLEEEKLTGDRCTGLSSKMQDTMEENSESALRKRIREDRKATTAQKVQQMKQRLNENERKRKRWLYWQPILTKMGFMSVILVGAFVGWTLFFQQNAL
In short: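 Degradation read-out: lytic HiBiT luminescence after 24 h treatment (37 °C, 5% CO2) of 5000 293T cells per well expressing HiBiT-fused PTPN2 from an N-terminal tag. Dosing was 11 points, half-log steps down from 10 μM, in duplicate; vehicle-treated and no-reagent wells served as controls.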

PTPN2 (B16F10.4 cells) = target: T2, PTPN2 (B16F10.4 cells) (Mus musculus, UniProt Q06180); assay: HiBiT Degradation B16F10.4 PTPN2; format: cell-based; conditions: 24.0 hours
T2 construct: HiBiT; host or cells: B16F10.4
T2 sequence (Q06180 1-406): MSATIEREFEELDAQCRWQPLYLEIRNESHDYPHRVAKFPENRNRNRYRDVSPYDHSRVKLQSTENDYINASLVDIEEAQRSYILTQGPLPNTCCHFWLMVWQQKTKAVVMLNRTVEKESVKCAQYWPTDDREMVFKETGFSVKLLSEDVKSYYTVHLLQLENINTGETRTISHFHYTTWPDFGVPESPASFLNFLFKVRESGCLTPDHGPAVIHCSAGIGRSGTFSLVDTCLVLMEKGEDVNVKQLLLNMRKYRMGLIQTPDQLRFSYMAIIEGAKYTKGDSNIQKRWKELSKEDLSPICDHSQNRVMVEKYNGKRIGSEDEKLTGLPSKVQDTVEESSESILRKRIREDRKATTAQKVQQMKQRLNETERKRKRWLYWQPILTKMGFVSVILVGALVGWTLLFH

Row | DC50 [1] | DC50 (PTPN2 (B16F10.4 cells)) | SMILES
1 | 50 to 200 nM | 50 to 200 nM | CC1(C)C[C@@H](Nc2cccc(-c3sc(C(=O)O)c(OCC(=O)O)c3Cl)c2)CCN1S(=O)(=O)Cc1cccc(NCCNCCCc2ccc3c4c(cccc24)C(=O)N3C2CCC(=O)NC2=O)c1 (stereo partly drawn) [Example 201]
2 | 200 to 1000 nM | 200 to 1000 nM | CC1(C)C[C@@H](Nc2cccc(-c3sc(C(=O)O)c(OCC(=O)O)c3Cl)c2)CCN1S(=O)(=O)Cc1cccc(NC(=O)N2CCC(c3ccc4c(c3)c3cccnc3n4C3CCC(=O)NC3=O)CC2)c1 (stereo partly drawn) [Example 195, 3-(carboxymethoxy)-4-chloro-5-[3-[[(4S)-1-[[3-[[4-[9-(2,6-dioxo-3-piperidyl)pyrido[2,3-b]indol-6-yl]piperidine-1-carbonyl]amino]phenyl]methylsulfonyl]-2,2-dimethyl-4-piperidyl]amino]phenyl]thiophene-2-carboxylic acid]
3 | 50 to 200 nM | 200 to 1000 nM | CC1(C)C[C@@H](Nc2cccc(-c3sc(C(=O)O)c(OCC(=O)O)c3Cl)c2)CCN1S(=O)(=O)Cc1cccc(NC(=O)NCCCc2cc3c4c(cccc4c2)N(C2CCC(=O)NC2=O)C3=O)c1 (stereo partly drawn) [Example 215, 3-(carboxymethoxy)-4-chloro-5-[3-[[(4S)-1-[[3-[3-[1-(2,6-dioxo-3-piperidyl)-2-oxo-benzo[cd]indol-4-yl]propylcarbamoylamino]phenyl]methylsulfonyl]-2,2-dimethyl-4-piperidyl]amino]phenyl]thiophene-2-carboxylic acid]
4 | 200 to 1000 nM | ≥ 1000 nM | CC1(C)C[C@@H](Nc2cccc(-c3sc(C(=O)O)c(OCC(=O)O)c3Cl)c2)CCN1S(=O)(=O)Cc1cccc(NC(=O)C2CCN(C(=O)COc3cccc4c3C(=O)N(C3CCC(=O)NC3=O)C4=O)CC2)c1 (stereo partly drawn) [Example 58, 3-(carboxymethoxy)-4-chloro-5-[3-[[(4S)-1-[3-[[1-[2-[[2-(2,6-dioxo-3-piperidyl)-1,3-dioxo-isoindolin-4-yl]oxyacetyl]piperidine-4-carbonyl]amino]phenyl]methylsulfonyl]-2,2-dimethyl-4-piperidyl]amino]phenyl]thiophene-2-carboxylic acid]
5 | 200 to 1000 nM | 50 to 200 nM | Cn1c(=O)n(C2CCC(=O)NC2=O)c2ccc(C3CN(C(=O)Nc4cccc(CS(=O)(=O)N5CC[C@H](Nc6cccc(-c7sc(C(=O)O)c(OCC(=O)O)c7Cl)c6)CC5(C)C)c4)CCC3F)cc21 (stereo partly drawn) [Example 212, 3-(carboxymethoxy)-4-chloro-5-[3-[[(4S)-1-[[3-[[3-[1-(2,6-dioxo-3-piperidyl)-3-methyl-2-oxo-benzimidazol-5-yl]-4-fluoro-piperidine-1-carbonyl]amino]phenyl]methylsulfonyl]-2,2-dimethyl-4-piperidyl]amino]phenyl]thiophene-2-carboxylic acid]
6 | 200 to 1000 nM | 200 to 1000 nM | CC1(C)C[C@@H](Nc2cccc(-c3sc(C(=O)O)c(OCC(=O)O)c3Cl)c2)CCN1S(=O)(=O)Cc1cccc(NC(=O)N2CCC(c3cnc4c(c3)c3ccccc3n4C3CCC(=O)NC3=O)CC2)c1 (stereo partly drawn) [Example 218, 3-(carboxymethoxy)-4-chloro-5-[3-[[(4S)-1-[[3-[[4-[9-(2,6-dioxo-3-piperidyl)pyrido[2,3-b]indol-3-yl]piperidine-1-carbonyl]amino]phenyl]methylsulfonyl]-2,2-dimethyl-4-piperidyl]amino]phenyl]thiophene-2-carboxylic acid]
7 | 50 to 200 nM | < 50 nM | CC1(C)C[C@@H](Nc2cccc(-c3sc(C(=O)O)c(OCC(=O)O)c3Cl)c2F)CCN1S(=O)(=O)Cc1ccc(F)c(NC(=O)N2CCC(c3ccc4c5c(cccc35)C(=O)N4C3CCC(=O)NC3=O)CC2)c1 (single isomer, unassigned) [Example 167]

Further lines, the molecule ahead of its results:

Row | SMILES | DC50 [1] | DC50 (PTPN2 (B16F10.4 cells))
8 | Cn1c(=O)n(C2CCC(=O)NC2=O)c2ccc(C3CCN(C(=O)Nc4cccc(CS(=O)(=O)N5CCC(Nc6cccc(-c7sc(C(=O)O)c(OCC(=O)O)c7Cl)c6)CC5)c4)CC3)cc21 (stereo not drawn) [Example 51, 3-(carboxymethoxy)-4-chloro-5-[3-[[1-[[3-[[4-[1-(2,6-dioxo-3-piperidyl)-3-methyl-2-oxo-benzimidazol-5-yl]piperidine-1-carbonyl]amino]phenyl]methylsulfonyl]-4-piperidyl]amino]phenyl]thiophene-2-carboxylic acid] | 50 to 200 nM | 50 to 200 nM
9 | O=C(O)COc1c(C(=O)O)sc(-c2cccc(NC3CCN(S(=O)(=O)Cc4cccc(NC(=O)CCN5CCC(Nc6cccc7c6CN(C6CCC(=O)NC6=O)C7=O)CC5)c4)CC3)c2)c1Cl (stereo not drawn) [Example 50, 3-(carboxymethoxy)-4-chloro-5-[3-[[1-[[3-[3-[4-[[2-(2,6-dioxo-3-piperidyl)-1-oxo-isoindolin-4-yl]amino]-1-piperidyl]propanoylamino]phenyl]methylsulfonyl]-4-piperidyl]amino]phenyl]thiophene-2-carboxylic acid] | < 50 nM | ≥ 1000 nM
10 | Cn1c(=O)n(C2CCC(=O)NC2=O)c2ccc(CC3CCN(C(=O)Nc4cccc(CS(=O)(=O)N5CC[C@H](Nc6cccc(-c7sc(C(=O)O)c(OCC(=O)O)c7Cl)c6)CC5(C)C)c4)CC3)cc21 (stereo partly drawn) [Example 175, 3-(carboxymethoxy)-4-chloro-5-[3-[[(4S)-1-[[3-[[4-[[1-(2,6-dioxo-3-piperidyl)-3-methyl-2-oxo-benzimidazol-5-yl]methyl]piperidine-1-carbonyl]amino]phenyl]methylsulfonyl]-2,2-dimethyl-4-piperidyl]amino]phenyl]thiophene-2-carboxylic acid] | 50 to 200 nM | < 50 nM
11 | Cn1c(=O)n(C2CCC(=O)NC2=O)c2ccc(C3CCN(C(=O)Nc4cc(CS(=O)(=O)N5CCC(Nc6cccc(-c7sc(C(=O)O)c(OCC(=O)O)c7Cl)c6)CC5(C)C)ccc4F)CC3)cc21 (stereo not drawn) [Example 114, 3-(carboxymethoxy)-4-chloro-5-[3-[[1-[[3-[[4-[1-(2,6-dioxo-3-piperidyl)-3-methyl-2-oxo-benzimidazol-5-yl]piperidine-1-carbonyl]amino]-4-fluoro-phenyl]methylsulfonyl]-2,2-dimethyl-4-piperidyl]amino]phenyl]thiophene-2-carboxylic acid] | 50 to 200 nM | < 50 nM
12 | Cn1c(=O)n(C2CCC(=O)NC2=O)c2ccc(C3CCN(C(=O)Nc4cccc(CS(=O)(=O)N5CCC(Nc6cccc(-c7sc(C(=O)O)c(OCC(=O)O)c7Cl)c6)CC5(C)C)c4F)CC3)cc21 (stereo not drawn) [Example 115, 3-(carboxymethoxy)-4-chloro-5-[3-[[1-[[3-[[4-[1-(2,6-dioxo-3-piperidyl)-3-methyl-2-oxo-benzimidazol-5-yl]piperidine-1-carbonyl]amino]-2-fluoro-phenyl]methylsulfonyl]-2,2-dimethyl-4-piperidyl]amino]phenyl]thiophene-2-carboxylic acid] | 50 to 200 nM | 200 to 1000 nM
13 | Cn1c(=O)n(C2CCC(=O)NC2=O)c2ccc(N3CCC(C(=O)Nc4cccc(CS(=O)(=O)N5CCC(Nc6cccc(-c7sc(C(=O)O)c(OCC(=O)O)c7Cl)c6)CC5)c4)CC3)cc21 (stereo not drawn) [Example 112, 3-(carboxymethoxy)-4-chloro-5-[3-[[1-[[3-[[1-[1-(2,6-dioxo-3-piperidyl)-3-methyl-2-oxo-benzimidazol-5-yl]piperidine-4-carbonyl]amino]phenyl]methylsulfonyl]-4-piperidyl]amino]phenyl]thiophene-2-carboxylic acid] | 50 to 200 nM | 50 to 200 nM
14 | Cn1c(=O)n(C2CCC(=O)NC2=O)c2ccc(C3CCCN(C(=O)Nc4cccc(CS(=O)(=O)N5CC[C@H](Nc6cccc(-c7sc(C(=O)O)c(OCC(=O)O)c7Cl)c6)CC5(C)C)c4)C3)cc21 (stereo partly drawn) [Example 203, 3-(carboxymethoxy)-4-chloro-5-[3-[[(4S)-1-[[3-[[3-[1-(2,6-dioxo-3-piperidyl)-3-methyl-2-oxo-benzimidazol-5-yl]piperidine-1-carbonyl]amino]phenyl]methylsulfonyl]-2,2-dimethyl-4-piperidyl]amino]phenyl]thiophene-2-carboxylic acid] | 200 to 1000 nM | 50 to 200 nM
15 | Cn1c(=O)n(C2CCC(=O)NC2=O)c2ccc(C3CCN(C(=O)Nc4cccc(CS(=O)(=O)N5CC[C@@H](Nc6cccc(-c7sc(C(=O)O)c(OCC(=O)O)c7Cl)c6)CC56CC6)c4)CC3)cc21 (stereo partly drawn) [Example 230, 3-(carboxymethoxy)-4-chloro-5-(3-(((7R)-4-((3-(4-(1-(2,6-dioxopiperidin-3-yl)-3-methyl-2-oxo-2,3-dihydro-1H-benzo[d]imidazol-5-yl)piperidine-1-carboxamido)benzyl)sulfonyl)-4-azaspiro[2.5]octan-7-yl)amino)phenyl)thiophene-2-carboxylic acid] | 200 to 1000 nM | 50 to 200 nM
